Assay results taken from patent US20240374763A1, “DIAGNOSIS AND MONITORING USING EXTRADOMAIN-B FIBRONECTIN TARGETED PROBES” (Case Western Reserve University, priority 2020, published 2024).
Counter-ions that a name gives are not always drawn. No end group written: not given here.

Columns and labels:
EDB-FN [1] = assay: MK2206-HCl treatment, qRT-PCR of EDB-FN; type: cell-based; details: MDA-MB-468-DR cells, 4 μM MK2206-HCl for 2 days, vs DMSO-treated controls
Method: (§1) The invasive TGF-β-treated and drug-resistant MCF7 and MDA-MB-468 populations were treated with MK2206-HCl, a pan-AKT inhibitor, purchased from SelleckChem (Boston, MA). For this treatment, 8×10^5 cells were plated on 6-well plates. After 24 h of attachment, the cells were treated with MK2206-HCl for 2 days (2 μM dose for MCF7 cells and 4 μM dose for MDA-MB-468 cells). Cells treated with equivalent volume of DMSO were used as controls. After treatment, the cells were counted and an equal number of cells was plated on Matrigel and in transwell inserts for the invasion and 3D growth assays, as described in the relevant sections. The treated and non-treated cells were similarly counted and harvested for protein and RNA extraction for western blotting and qRT-PCR, respectively.
Total RNA was extracted from cells and tissues using the RNeasy Plus Mini Kit (Qiagen, Germantown, MD), according to manufacturer's instructions. RNA concentration was determined and 1 μg of RNA was used to set up reverse transcription using the miScript II RT Kit (Qiagen) and qPCR was performed using the SyBr Green PCR Master Mix (Applied Biosystems, CA). Gene expression was analyzed by the 2-ΔΔCt method with 18S or R-actin expression as the control.

DLD1-DR tumors = assay: MK2206-HCl therapy of DLD1-DR tumor-bearing mice, tumor volume; type: in vivo; details: for average tumor volume: treated group
Method: For therapeutic monitoring, 3-4×10^6 DLD1-DR cells suspended in Matrigel-PBS mixture (1:1) were subcutaneously injected in the left flanks of 10 nude mice (100 μL per mouse, mice labeled TM1-TM10). Tumor volumes were monitored and measured once a week using a Vernier caliper. When the average tumor volumes reached 100 mm^3, mice were randomized into 2 groups of 5: vehicle (mice #TM1, TM3, TM4, TM5, & TM10) and treated (mice #TM2, TM6, TM7, TM8, & TM9). Once a week, mice in the treated group received MK2206-HCl (100 mg/kg) and those in the vehicle group were injected with equivalent volume of DMSO, as described previously. Smith, J. A., L. J. Stallons, and R. G. Schnellmann, Am J Physiol Renal Physiol, 2014. 307(4): p. F435-44. After 3 weeks of treatment, tumor volumes increased over 1000 mm^3 and the experiment was terminated. The animals were then euthanized, and the tumors were harvested for post-mortem histology and IHC. Tumor volumes were calculated as [(Width)2×Length]/2.

[2] = test system: TGF-β-treated and drug-resistant MCF7 and MDA-MB-468 cells; assay: MK2206-HCl treatment, transwell invasion assay; type: cell-based; details: TGFβ-treated and drug-resistant cell derivatives; 2 μM (MCF7) or 4 μM (MDA-MB-468) for 2 days
Method: as §1
For the invasion assay, breast cancer cells were starved in serum-depleted media overnight. The next day, 1-2×10^5 cells were plated in transwell inserts (VWR, Radnor, PA) coated with 0.3 mg/mL Corning™ Matrigel™ Membrane Matrix (Corning, NY). After 1-2 days, the inserts were swabbed with Q-tips to remove the plated cells. The invading cells on the bottom of the inserts were fixed with 4% paraformaldehyde followed by staining with 0.1% crystal violet for 20 min. Excess stain was washed under tap water and images of the purple migrated cells were taken using the Moticam T2 camera with 10× objective lens.

[3] = test system: phospho-AKT (T308 and S473); assay: MK2206-HCl treatment, western blot of phospho-AKT; type: cell-based; details: invasive cell derivatives; 2 μM (MCF7) or 4 μM (MDA-MB-468) for 2 days
Method: as §1, with “respectively. Total cellular protein was extracted as previously described. […] et al., (2019) Bioconjug Chem 30, 907-919. Protein concentration was determined by Lowry assay and equal concentration of protein extracts (40 μg) was loaded on SDS-PAGE gels, transferred onto nitrocellulose membrane and immunoblotted with primary antibodies overnight. Anti-EDB-FN antibody (G4 clone) was used at 1:1000 dilution. […]” for “respectively.”

EDB-FN [4] = assay: ZD2-Cy5.5 staining of frozen tissue sections, BC-1 blocking experiment; details: PaCa xenograft tissue sections, excess BC1 antibody
Method: For assessment of binding specificity of ZD2 peptide, flash frozen samples of tumor and normal tissues were collected from the euthanized tumor bearing mice and embedded in optimal cutting temperature media. The embedded samples were then immersed in liquid nitrogen for 5 minutes and transferred to −80° C. for storage before cryosectioning. Tissue sections were blocked for 1 hr in PBS containing 0.05% Tween-20 and 10% normal goat serum (Gibco, Gaithersburg, MD) and then stained with BC-1 primary monoclonal antibody (1:400) or ZD2-Cy5.5 (500 nM) at 4° C. overnight or room temperature incubation for 2.5 hr, respectively, and then washed with PBS-T buffer. Secondary Alexa Fluor 594 anti-rabbit was incubated with the BC-1 treated sections for 1 hour at room temperature (1:1000). For the blocking experiment, the tissue sections were first incubated with an excess of BC1 antibody at 4° C. overnight, then washed three times with PBS-T. The sections were then incubated with ZD2-Cy5.5 at room temperature incubation for 2.5 hr. The stained sections were washed with PBS-T buffer and images were acquired on an Olympus FV1000 (Waltham, MA) confocal microscope using pre-programmed emission and excitation filters for Cy5.5 (excitation: 635 nm; emission: 693 nm) and DAPI (excitation: 405 nm; emission: 461 nm), using a 10× objective lens.

EDB-FN [5] = molecular target: T1, EDB-FN (Homo sapiens, UniProt P02751); assay: ZD2-Cy5.5 staining of human tissue; set-up: from tissue; host or cells: deparaffinized sections of human pancreatic cancer, PanIN and normal pancreas; details: 500 nM
T1 sequence (P02751 32-2267 isoform P02751-13 limits assumed): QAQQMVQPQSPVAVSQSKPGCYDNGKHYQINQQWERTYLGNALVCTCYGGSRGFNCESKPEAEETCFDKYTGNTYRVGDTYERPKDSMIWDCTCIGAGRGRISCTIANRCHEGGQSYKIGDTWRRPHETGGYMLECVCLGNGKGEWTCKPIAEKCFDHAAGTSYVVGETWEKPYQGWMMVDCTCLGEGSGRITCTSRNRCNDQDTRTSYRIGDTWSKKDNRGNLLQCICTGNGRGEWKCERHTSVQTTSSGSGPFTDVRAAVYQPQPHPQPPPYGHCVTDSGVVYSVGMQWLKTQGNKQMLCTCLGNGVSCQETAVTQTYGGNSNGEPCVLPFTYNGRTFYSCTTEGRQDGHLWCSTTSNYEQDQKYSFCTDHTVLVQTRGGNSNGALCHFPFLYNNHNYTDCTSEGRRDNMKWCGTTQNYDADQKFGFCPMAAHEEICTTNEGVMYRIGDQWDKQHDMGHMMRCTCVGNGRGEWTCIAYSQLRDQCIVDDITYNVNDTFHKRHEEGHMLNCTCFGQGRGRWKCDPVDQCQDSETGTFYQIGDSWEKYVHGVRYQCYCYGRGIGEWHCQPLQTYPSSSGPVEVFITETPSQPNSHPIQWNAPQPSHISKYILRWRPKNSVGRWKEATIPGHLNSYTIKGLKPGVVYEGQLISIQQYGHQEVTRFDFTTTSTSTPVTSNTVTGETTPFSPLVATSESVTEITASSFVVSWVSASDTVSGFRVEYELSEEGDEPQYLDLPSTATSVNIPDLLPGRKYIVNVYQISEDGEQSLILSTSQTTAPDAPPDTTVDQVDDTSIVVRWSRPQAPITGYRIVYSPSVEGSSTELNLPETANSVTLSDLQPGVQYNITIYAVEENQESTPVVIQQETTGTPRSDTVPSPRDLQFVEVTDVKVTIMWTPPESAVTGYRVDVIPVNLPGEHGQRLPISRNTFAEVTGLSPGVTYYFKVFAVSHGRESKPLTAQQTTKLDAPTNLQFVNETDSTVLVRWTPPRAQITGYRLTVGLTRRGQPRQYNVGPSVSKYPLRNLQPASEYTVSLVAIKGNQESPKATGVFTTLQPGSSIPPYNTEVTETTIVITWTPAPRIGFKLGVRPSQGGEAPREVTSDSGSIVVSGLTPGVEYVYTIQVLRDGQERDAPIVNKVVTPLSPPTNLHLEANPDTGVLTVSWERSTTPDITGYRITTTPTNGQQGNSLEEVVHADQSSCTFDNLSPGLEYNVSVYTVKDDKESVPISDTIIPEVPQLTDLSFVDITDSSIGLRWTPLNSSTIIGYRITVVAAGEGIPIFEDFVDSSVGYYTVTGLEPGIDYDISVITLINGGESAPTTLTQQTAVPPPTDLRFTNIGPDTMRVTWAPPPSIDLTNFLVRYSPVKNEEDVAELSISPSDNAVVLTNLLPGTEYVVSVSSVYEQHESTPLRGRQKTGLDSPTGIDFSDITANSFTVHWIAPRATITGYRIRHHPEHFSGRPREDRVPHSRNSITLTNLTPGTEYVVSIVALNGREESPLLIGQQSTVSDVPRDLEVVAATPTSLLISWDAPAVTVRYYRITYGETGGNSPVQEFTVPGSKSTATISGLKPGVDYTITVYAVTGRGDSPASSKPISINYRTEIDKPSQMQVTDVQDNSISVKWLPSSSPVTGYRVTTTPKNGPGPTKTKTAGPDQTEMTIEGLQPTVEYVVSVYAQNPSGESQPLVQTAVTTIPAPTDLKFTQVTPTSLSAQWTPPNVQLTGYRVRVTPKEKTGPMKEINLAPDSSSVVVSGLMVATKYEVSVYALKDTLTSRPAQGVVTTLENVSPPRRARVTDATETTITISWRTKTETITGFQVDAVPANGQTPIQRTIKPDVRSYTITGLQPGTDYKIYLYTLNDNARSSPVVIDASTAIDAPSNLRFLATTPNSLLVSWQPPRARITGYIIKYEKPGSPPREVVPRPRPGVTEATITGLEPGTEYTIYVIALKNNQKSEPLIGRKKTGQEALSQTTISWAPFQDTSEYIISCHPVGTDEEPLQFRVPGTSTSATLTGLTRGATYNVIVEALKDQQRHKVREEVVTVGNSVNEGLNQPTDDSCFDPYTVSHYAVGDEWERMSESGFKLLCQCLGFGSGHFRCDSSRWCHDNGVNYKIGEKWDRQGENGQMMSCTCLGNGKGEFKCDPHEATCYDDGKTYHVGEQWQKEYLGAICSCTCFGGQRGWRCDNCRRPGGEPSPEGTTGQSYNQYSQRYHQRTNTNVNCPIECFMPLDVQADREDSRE
Method: Tissue sections from PaCa patients (Case Comprehensive Cancer Center, Cleveland, OH) were deparaffinized with xylene, ethanol, and washed with water. Blocking was performed with 10% goat serum (Invitrogen, Carlsbad, CA) in PBS with 0.1% Tween 20 (PBS-T) for 30 minutes and incubated with 500 nM ZD2-Cy5.5 in PBS-T for 1 hour at 37° C. Following three washes with PBS-T, the sections were mounted using Fluoroshield mounting medium (Abcam, Cambridge, UK). Images were acquired on a FV1000 (Olympus, Waltham, MA) confocal microscope using pre-programmed emission and excitation filters for Cy5.5 (excitation: 635 nm; emission: 693 nm) and DAPI (excitation: 405 nm; emission: 461 nm), using a 10× objective lens. All tissue samples were imaged at the same laser power and sensor gain. Images were generated from single-channel grayscale images using FIJI software.

EDB-FN [6] = molecular target: T1, EDB-FN; assay: Peptide binding study of OSCC spheroids with ZD2-Cy5.5; type: cell-based; details: ZD2-Cy5.5 125 nM, 15 minutes, ratio to Hoechst
Method: Coverslip plates (4-well, Ibidi GmbH, Martinsried, Germany) were coated with Cultrex Basement Membrane Matrix (350 μL, Trevigen, Gaithersburg, MA, USA). For spheroid formation, 2×10^5 OSCC cells were seeded into prepared wells, incubated for 2 days, and photographed with the Moticam T2 camera (Motic, Hong Kong, China). For peptide binding, 1×10^5 cells were seeded into prepared wells and incubated for 2 days. Spheroids were stained with ZD2-Cy5.5 (125 nM), synthesized as previously described, and Hoechst (1:2000 dilution) (Invitrogen, Carlsbad, CA, USA) dyes for 15 minutes, washed 3× with DPBS (Thermo Fisher Scientific), and imaged with confocal laser scanning microscopy using the Olympus FV1000 system (Olympus Life Science, Tokyo, Japan).
Confocal fluorescence images were analyzed using FIJI. For quantification, images were thresholded to generate ROIs of both stains. For spheroid size, the average size of Hoechst ROIs was calculated. For staining intensity, the average signal intensities of ZD2-Cy5.5 and Hoechst ROIs were calculated, along with the ratio between the average intensities.

Compound: NC1(c2ccc(-c3nc4ccn5c(=O)[nH]nc5c4cc3-c3ccccc3)cc2)CCC1 [MK2206-HCl]
- decrease in EDB-FN mRNA (EDB-FN [1]): 10-15%
- tumor response to therapy (DLD1-DR tumors; DLD1-DR tumors, MK2206-HCl 100 mg/kg once a week for 3 weeks): did not respond to therapy
- average tumor volume (DLD1-DR tumors; week 1 (baseline), MK2206-HCl 100 mg/kg once a week): 110.5±11.97 mm^3
- average tumor volume (DLD1-DR tumors; week 4, after 3 weeks of MK2206-HCl 100 mg/kg once a week): 1249.7±199.3 mm^3
- invasive potential [2]: reduced the invasive potential
- inhibition of phospho-AKT (T308 and S473) [3]: robust inhibition

Compound: ZD2-Cy5.5: EDB-FN-specific fluorescent peptide probe, ZD2 peptide labeled with Cy5.5 (TVRTSAD; also: labeled with Cy5.5, site and linker not given here)
- ZD2-Cy5.5 binding in the presence of the anti-EDB-FN antibody (EDB-FN [4]): blocked
- ZD2-Cy5.5 binding (EDB-FN [5]; human PaCa tissue): high
- ZD2-Cy5.5 binding (EDB-FN [5]; normal pancreatic tissue): low
- ZD2-Cy5.5 binding (EDB-FN [5]; precancerous PanIN tissue): moderate
- staining intensity of SCC4 relative to HSC3 spheroids (EDB-FN [6]): approximately 2 fold
